Legend:
[1] = tested on: human circulating tumor cells; assay: drug sensitivity testing (CTC assay) on circulating tumor cells cultivated from patient blood; type: cell-based
Excerpt: Determination of the effect of a pharmaceutical composition according to the present invention, on human circulating tumor cells in blood of nine patients suffering from different types of carcinoma as given in the following Table IV. The composition of the pharmaceutical composition is the same as used in Example 4.
The cells from the collected blood were cultivated in a usual manner with an agent. The agent was either the pharmaceutical composition according to the present invention, or Resveratrol-ACTIF®, which is a combination preparation comprising resveratrol and at least one gingerol, that were added to the cell culture in a concentration of either 50% 100% and 200%.
The same EDTA blood sample used for the verification of the CTC burden was used for drug sensitivity testing.
After enrichment of mononuclear cells by density gradient centrifugation, CD45 depletion and erythrolysis the remaining cells were suspended in cell culture medium and incubated for 4 days with and without the tested compounds. Compounds were tested at three tissue culture doses (TCD), namely 50%, 100% and 200%.. […]
The same experiment was performed with human circulating tumor cells, prepared from a tumor patient by using Resveratrol-ACTIF® and the pharmaceutical composition according to the present invention. […] The results vary from patient to patient and therefore have to be determined individually. […]

[2] = several animal studies; cited from earlier work
[3] = in buffer at pH 7; cited from earlier work

N.N.O=C([O-])C1(C(=O)[O-])CCC1.[Pt+2] [Carboplatin]
response of tumor cell-inhibition ([1]; patient 7, Figure 8, already with the 50% TCD (7,9 µg/ml)): maximal response has been reached

CCC(=O)C(CC(C)N(C)C)(c1ccccc1)c1ccccc1 (stereo not shown) [Methadon]
antitumoral capacity among the tested chemotherapeutics [1]: highest antitumoral capacity

COc1cc(C=CC(=O)CC(=O)C=Cc2ccc(O)c(OC)c2)ccc1O [curcumin, 1,7-bis(4-hydroxy-3-methoxyphenyl)-1,6-heptadiene-3,5-dione]
oral curcumin excreted in the faeces [2]: 90% | solubility in aqueous solution [3]: less than 0.03 M

From patent publication EP4588470A1, “PHARMACEUTICAL COMPOSITION COMPRISING CURCUMIN AND THE PREPARATION THEREOF” (priority 2024, dated 2025)
